# Test results published in patent publication US20200140951A9, “Transcriptional system and uses thereof for single cell detection” (Université Laval, priority 2017, published 2020).
# Values joined by “and” are separate entries in the source; they are usually repeats but may differ in a detail not shown here. Equal entries are not always repeated.
# Experiments:
# [1] = system: AR transcriptional activity in 22Rv1-GFP cells; conditions: DHT 1 nM + antiandrogen 10 μM; 48 h
# Experimental: (§1) (A) Scheme for targeting spiked PCa cells from urine. (B) PCa cells (22Rv1 stably expressing mCherry) were spiked in the urine of an healthy individual. […] Seventy-two hours after infection the cells were imaged by adding D-luciferin substrate and with an exposure time of 5 min per image using the bioluminescence microscope. […] Urine samples from healthy patients were spiked with 250 PCa cells stably expressing GFP (22Rv1-GFP or LAPC4-GFP). Urine was spun down to collect all the cells. These cells were infected with 5×10^5 virus particles of PCA3-Cre-PSEBC-ITSTA. […] Forty-eight hours post treatment imaging was repeated to assess response on the same cells to determine change in luciferase expression. Relative grey intensity=((sum grey intensity per ROI−sum grey intensity of background)÷sum grey intensity at 0 h)×100).
# (§2) Urine samples from healthy patients were spiked with 250 PCa cells stably expressing GFP (22Rv1-GFP or LAPC4-GFP). Urine was spun down to collect all the cells. These cells were infected with 5×10^5 virus particles of PCA3-Cre-PSEBC-ITSTA. […] Forty-eight hours post treatment imaging was repeated to assess response on the same cells to determine change in luciferase expression. Relative grey intensity=((sum grey intensity per ROI−sum grey intensity of background)÷sum grey intensity at 0 h)×100).
# [2] = system: AR transcriptional activity in LAPC4-GFP cells; conditions: 48 h
# Experimental: as §1, §2
# 22Rv1 cells [3] = experiment: Growth curves of PCa cells (cell counter); type: cell-based; conditions: DHT 1 nM + antiandrogen 10 μM; six days of culture
# Experimental: The cells were trypsinized and counted using a cell counter after six days of culture. Relative cell count=number of cells at each time point÷number of cells at 0 h. Data represent technical triplicates±SD.
# [4] = system: AR transcriptional activity in PCa cells from urine/bladder wash of patients
# Excerpt: (A) & (B) Images show the H&E staining and IHC using anti-PSA for castration sensitive prostate cancer (CSPC) and castration resistance prostate cancer (CRPC) patients, case 9 and 11 respectively. (C), (D), (E) & (F) Graphs show single cell response to treatment detected with PCA3-Cre-PSEBC-ITSTA in PCa cells from case 9 and 11. Urine/bladder wash from patients post-DRE was sampled and spun down to collect all the cells. These cells were infected with 5×10^5 virus particles of PCA3-Cre-PSEBC-ITSTA. […] Forty-eight hours post treatment imaging was repeated to assess response on the same cells to determine change in expression. Relative grey intensity=((sum grey intensity per ROI−sum grey intensity of background)÷ sum grey intensity at 0 h)×100).
# (D) Images show the H&E staining and IHC using anti-PSA for castration resistance prostate cancer (CRPC) patients 11. […] Urine or bladder wash from patients was sampled and spun down to collect all the cells. These cells were infected with 5×10^5 virus particles of PCA3-Cre-PSEBC-ITSTA. […] Forty-eight hours post treatment imaging was repeated to assess response on the same cells.
# Forty-eight hours later, single cell bioluminescence was measured again. Single cell response to antiandrogen was determined and cells were considered as resistant if luciferase activity increased despite antiandrogen treatment.
# Forty-eight hours post-treatment, single cell bioluminescence was measured again. For case 22, sampling was done as a naïve state before any treatment was received. Similar analysis as cell lines was performed.
# The above described procedure for isolation was used to isolate cells from these samples. The samples were then infected with 5×10^5 ivp of PCA3-Cre-PSEBC-TSTA-fl adenovirus. […] Forty-eight hours later, bioluminescence imaging was repeated on the same cells. Percentage of targeted cells=(number bioluminescence positive cells÷number m-cherry positive cells)×100. The sum of gray intensity values was determined for single cells before and after treatment using CellSens software. Relative gray intensity=((sum gray intensity per ROI−sum gray intensity of background)÷sum gray intensity at 0 h)×100).
# 22Rv1 cells [5] = experiment: Viability assay (resazurin); type: cell-based; conditions: DHT 1 nM + antiandrogen 10 μM
# Experimental: (§3) LAPC4, and 22Rv1 cells were seeded. […] The cells proliferation was measured using resazurin. Relative cell count=(Fluorescence at each time point÷fluorescence at 0 h). Data represents technical triplicates±SD.
# LAPC4 cells = experiment: Viability assay (resazurin); type: cell-based; conditions: DHT 1 nM + antiandrogen 10 μM
# Experimental: as §3
# [6] = system: AR transcription in LNCaP-GFP cells; experiment: Single cell treatment response of spiked cells isolated from blood, PSEBC-TSTA; type: cell-based; conditions: DHT+Enz 1 nM+10 μM; 48 h
# Experimental: FIG. 15 LNCaP cells displaying greater cell-to-cell AR-transcriptional homogeneity upon treatment when compared to LAPC4 cells. […] Forty-eight hours after infection, the cells were imaged after an exposure time of 15 secs per image under bioluminescence microscopy. […] Biofluorescence microscopy imaging was performed for each well for 48 h, with images taken every 5 h to track the cells. Luciferase imaging was performed again on the same cells to determine the change in fl expression.
# Blood was collected from a healthy donor and placed in a heparin-coated tube. This study was approved by the Institutional Review Board of the CHU de Quebec Hospital, Quebec, QC, Canada. Informed consent was obtained by the donor for blood sampling. All experiments were performed in accordance with relevant guidelines and regulations. LAPC4 and LNCaP cells were added to the blood sample (500 cells/3 ml of blood), followed by a custom-made RosetteSep cocktail ([…] Technologies, Vancouver, BC, Canada) at a volume of 50 μl per ml. The sample was gently mixed and incubated thereafter at room temperature for 20 min. Fifteen milliliters of Ficoll-Paque Plus (GE healthcare Life Sciences, Mississauga, ON, Canada) were then placed in a 50 ml SepMate tube ([…] Technologies) 31 and blood was poured gently along the walls of the tube onto the Ficoll layer. […]
# [7] = system: AR activity in LAPC4-GFP single cells; experiment: Single cell treatment response, PSEBC-TSTA bioluminescence microscopy; type: cell-based; conditions: for cells with decrease in fl activity / cells with increase in fl activity: n=10 cells, 48 h treatment, DHT 1 nM or DHT+Enz 1 nM+10 μM
# Experimental: Forty-eight hours post-infection, the cells were imaged after D-luciferin addition. […] GFP biofluorescence imaging was then performed every 5 h to track the cells. After 48 hours of treatment, luciferase imaging was repeated to determine the change in fl expression. […] The corresponding cells tracked and imaged by biofluorescence microscopy is also shown. […] LAPC4-GFP cells were infected with PCA3-3STA, treated and imaged as described in (A). (D) Upper panel: Scheme of the method used to isolate and image spiked PCa cells from blood. […] Every 5 h, GFP biofluorescence imaging was performed to track the cells. At 48 h, luminescence imaging was repeated to determine single cell fl expression changes. Lower panels: Biofluorescence and bioluminescence images of blood spiked-LAPC4-GFP cells transduced with PSEBC-TSTA after PCa cell isolation. (E) Bioluminescence microscopy quantification of single cell responses to AR-antagonists after PSEBC-TSTA transduction of PCa spiked cells (LAPC4-GFP). Relative grey intensity=((sum grey intensity per ROI−sum grey intensity of background)÷sum grey intensity at 0 h)×100. Data represent technical triplicates±SD.
# Forty-eight hours after infection, the cells were imaged by adding D-luciferin and an exposure time of 15 secs per image under bioluminescence microscopy. […] GFP biofluorescence imaging was performed every 5 h to track the cells. After 48 hours, luminescence imaging was performed again on the same cells to determine the changes in fl activity. Relative grey intensity was quantified for n=10 cells in each treatment condition before and after treatment. Relative grey intensity=((sum grey intensity per ROI−sum grey intensity of background)÷sum grey intensity at 0 h)×100. Each ROI defines a single cell.
# To track the change in position and growth of single cells in which fl activity was measured, biofluorescence microscopy imaging was performed every 5 h for 48 h (GFP-positive cells) after which time bioluminescence imaging and quantification were repeated on the same cells. Sum grey intensity was then determined for single cells before and after treatment using the cellSens soft-ware. Relative grey intensity=((sum grey intensity per ROI−sum grey intensity of background)÷sum grey intensity at 0 h)×100.
SMILES,percentage of cells with increased activity relative to DHT treated group [1],cells with decrease in luciferase activity ([2]; DHT 1 nM + Bic 10 μM),cells with increase in luciferase activity ([2]; DHT 1 nM + Bic 10 μM),percentage of cells with increased activity relative to DHT treated group ([2]; DHT 1 nM + antiandrogen 10 μM),growth inhibition (relative cell count) (22Rv1 cells [3]),cells with decrease in PSEBC activity [4],cells with increase in fl expression [4],level of AR activity of AR active cells (relative mean luminescence activity per cell) [4],urine PCa cells with increase in PSEBC promoter dependent fl activity compared to DHT only group [4],urine tumor cells AR active (relative fraction of AR active cells) [4],growth inhibition (resazurin proliferation) (22Rv1 cells [5]),growth inhibition (resazurin proliferation) (LAPC4 cells),single cell AR transcriptional response pattern [6],"effect on DHT induction of sum of fl activity of ten single cells ([7]; DHT 1 nM + antiandrogen 10 μM, 48 h)",cells with decrease in fl activity [7],cells with increase in fl activity [7],"induction of sum of fl activity of ten single cells ([7]; DHT 1 nM, 48 h)"
"CC(O)(CS(=O)(=O)c1ccc(F)cc1)C(=O)Nc1ccc(C#N)c(C(F)(F)F)c1 (centres unmarked) [Bic, bicalutamide]",114%,60%,40%,14%,not inhibited,80% and 60%,50%,418.5%,44% and 67%,63%,,,,,,,
"CNC(=O)c1ccc(N2C(=S)N(c3ccc(C#N)c(C(F)(F)F)c3)C(=O)C2(C)C)cc1F [Enz, enzalutamide]",,,,,,,,,,,did not display inhibited growth,displayed inhibited growth,homogeneous response,inhibited,70%,30%,
"C[C@]12CCC(=O)C[C@@H]1CC[C@@H]1[C@@H]2CC[C@]2(C)[C@@H](O)CC[C@@H]12 [DHT, dihydrotestosterone]",,,,,,60%,,,,,,,,,20%,80%,8.8 fold
